According to ChEMBL document CHEMBL4507320, “Data for DCP probe NVS-MALT1” (2021):

Legend:
[1] = system: Tyrosine-protein kinase ABL1 (Homo sapiens), P00519 [F317I]; conditions: Compound concentration 1000.0 nM
[2] = system: Tyrosine-protein kinase ABL1 (Homo sapiens), P00519 [Q252H]; conditions: Compound concentration 1000.0 nM
[3] = biological target: Tyrosine-protein kinase ABL1 (Homo sapiens) (UniProt P00519); conditions: Compound concentration 1000.0 nM
[4] = biological target: Activin receptor type-1 (Homo sapiens) (UniProt Q04771); conditions: Compound concentration 1000.0 nM
Activin receptor type-1 (Homo sapiens), sequence (Q04771 whole entry): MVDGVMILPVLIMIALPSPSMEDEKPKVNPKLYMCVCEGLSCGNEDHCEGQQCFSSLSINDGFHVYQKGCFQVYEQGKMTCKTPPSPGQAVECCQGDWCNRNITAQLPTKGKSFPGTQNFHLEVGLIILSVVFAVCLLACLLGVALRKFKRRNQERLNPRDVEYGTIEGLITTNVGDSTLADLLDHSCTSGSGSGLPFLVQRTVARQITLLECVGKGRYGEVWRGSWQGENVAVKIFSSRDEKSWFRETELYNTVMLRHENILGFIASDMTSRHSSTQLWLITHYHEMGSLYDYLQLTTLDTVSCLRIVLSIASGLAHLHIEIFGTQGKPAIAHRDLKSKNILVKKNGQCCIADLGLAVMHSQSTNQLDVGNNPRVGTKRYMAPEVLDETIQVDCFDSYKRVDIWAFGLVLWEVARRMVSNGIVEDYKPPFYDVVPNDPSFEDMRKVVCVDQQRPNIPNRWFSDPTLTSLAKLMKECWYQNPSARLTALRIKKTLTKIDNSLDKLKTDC

[5] = biological target: Atypical kinase COQ8B, mitochondrial (Homo sapiens) (UniProt Q96D53); conditions: Compound concentration 1000.0 nM
[6] = biological target: Aurora kinase A (Homo sapiens) (UniProt O14965); conditions: Compound concentration 1000.0 nM
[7] = biological target: Tyrosine-protein kinase receptor UFO (Homo sapiens) (UniProt P30530); conditions: Compound concentration 1000.0 nM
[8] = biological target: Bone morphogenetic protein receptor type-1A (Homo sapiens) (UniProt P36894); conditions: Compound concentration 1000.0 nM
[9] = biological target: Bone morphogenetic protein receptor type-2 (Homo sapiens) (UniProt Q13873); conditions: Compound concentration 1000.0 nM
[10] = biological target: Tyrosine-protein kinase BTK (Homo sapiens) (UniProt Q06187); conditions: Compound concentration 1000.0 nM
[11] = biological target: Calcium/calmodulin-dependent protein kinase type II subunit alpha (Homo sapiens) (UniProt Q9UQM7); conditions: Compound concentration 1000.0 nM
Calcium/calmodulin-dependent protein kinase type II subunit alpha (Homo sapiens), sequence (Q9UQM7 whole entry): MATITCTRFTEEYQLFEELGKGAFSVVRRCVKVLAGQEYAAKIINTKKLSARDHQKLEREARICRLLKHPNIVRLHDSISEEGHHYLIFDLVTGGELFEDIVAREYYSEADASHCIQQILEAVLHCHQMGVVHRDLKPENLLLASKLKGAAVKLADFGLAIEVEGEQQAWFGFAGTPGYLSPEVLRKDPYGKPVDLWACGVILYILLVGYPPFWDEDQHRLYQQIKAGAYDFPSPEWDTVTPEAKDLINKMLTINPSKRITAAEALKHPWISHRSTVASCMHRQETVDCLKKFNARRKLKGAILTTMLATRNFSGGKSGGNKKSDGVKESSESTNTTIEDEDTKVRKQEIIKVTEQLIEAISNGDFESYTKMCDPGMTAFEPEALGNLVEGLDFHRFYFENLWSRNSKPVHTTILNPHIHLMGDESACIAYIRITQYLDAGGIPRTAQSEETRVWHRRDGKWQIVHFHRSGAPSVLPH

[12] = biological target: Cyclin-dependent kinase 13 (Homo sapiens) (UniProt Q14004); conditions: Compound concentration 1000.0 nM
[13] = biological target: Cyclin-dependent kinase 2 (Homo sapiens) (UniProt P24941); conditions: Compound concentration 1000.0 nM
[14] = biological target: Cyclin-dependent kinase 7 (Homo sapiens) (UniProt P50613); conditions: Compound concentration 1000.0 nM
Cyclin-dependent kinase 7 (Homo sapiens), sequence (P50613 whole entry): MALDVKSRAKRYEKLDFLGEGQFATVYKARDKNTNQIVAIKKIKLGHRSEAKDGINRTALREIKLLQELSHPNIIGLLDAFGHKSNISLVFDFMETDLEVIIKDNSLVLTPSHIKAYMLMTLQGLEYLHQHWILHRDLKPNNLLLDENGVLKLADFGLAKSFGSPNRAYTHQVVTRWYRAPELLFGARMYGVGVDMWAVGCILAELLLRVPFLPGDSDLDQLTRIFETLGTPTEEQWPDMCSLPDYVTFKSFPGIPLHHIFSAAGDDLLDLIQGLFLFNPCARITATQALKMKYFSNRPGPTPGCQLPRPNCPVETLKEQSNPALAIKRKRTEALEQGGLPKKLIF

[15] = biological target: Cyclin-dependent kinase-like 1 (Homo sapiens) (UniProt Q00532); conditions: Compound concentration 1000.0 nM
[16] = biological target: Epidermal growth factor receptor (Homo sapiens) (UniProt P00533); conditions: Compound concentration 1000.0 nM
[17] = system: Epidermal growth factor receptor (Homo sapiens), P00533 [UNDEFINED MUTATION]; conditions: Compound concentration 1000.0 nM
[18] = system: Epidermal growth factor receptor (Homo sapiens), P00533 [T790M]; conditions: Compound concentration 1000.0 nM
[19] = biological target: Mitogen-activated protein kinase 15 (Homo sapiens) (UniProt Q8TD08); conditions: Compound concentration 1000.0 nM
Mitogen-activated protein kinase 15 (Homo sapiens), sequence (Q8TD08 whole entry): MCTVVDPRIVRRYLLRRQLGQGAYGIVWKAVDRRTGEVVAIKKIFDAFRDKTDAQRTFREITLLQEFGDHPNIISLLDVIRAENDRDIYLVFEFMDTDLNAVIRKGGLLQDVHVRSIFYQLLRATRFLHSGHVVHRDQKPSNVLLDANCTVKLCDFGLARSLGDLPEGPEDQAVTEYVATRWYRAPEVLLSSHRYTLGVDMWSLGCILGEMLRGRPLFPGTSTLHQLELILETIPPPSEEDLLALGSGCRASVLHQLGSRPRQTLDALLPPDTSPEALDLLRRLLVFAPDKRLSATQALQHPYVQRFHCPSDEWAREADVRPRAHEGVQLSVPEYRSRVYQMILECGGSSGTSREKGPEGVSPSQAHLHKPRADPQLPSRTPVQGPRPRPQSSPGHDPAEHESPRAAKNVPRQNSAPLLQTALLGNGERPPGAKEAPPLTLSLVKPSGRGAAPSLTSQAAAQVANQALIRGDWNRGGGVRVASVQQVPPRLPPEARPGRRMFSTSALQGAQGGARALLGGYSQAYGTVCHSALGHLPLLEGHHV

[20] = biological target: Tyrosine-protein kinase Fgr (Homo sapiens) (UniProt P09769); conditions: Compound concentration 1000.0 nM
[21] = biological target: Rhodopsin kinase GRK1 (Homo sapiens) (UniProt Q15835); conditions: Compound concentration 1000.0 nM
[22] = biological target: G protein-coupled receptor kinase 3 (Homo sapiens) (UniProt P35626); conditions: Compound concentration 1000.0 nM
[23] = biological target: Mitogen-activated protein kinase kinase kinase 3 (Homo sapiens) (UniProt Q99759); conditions: Compound concentration 1000.0 nM
[24] = biological target: Serine/threonine-protein kinase MARK2 (Homo sapiens) (UniProt Q7KZI7); conditions: Compound concentration 1000.0 nM
[25] = biological target: Dual specificity mitogen-activated protein kinase kinase 2 (Homo sapiens) (UniProt P36507); conditions: Compound concentration 1000.0 nM
Dual specificity mitogen-activated protein kinase kinase 2 (Homo sapiens), sequence (P36507 whole entry): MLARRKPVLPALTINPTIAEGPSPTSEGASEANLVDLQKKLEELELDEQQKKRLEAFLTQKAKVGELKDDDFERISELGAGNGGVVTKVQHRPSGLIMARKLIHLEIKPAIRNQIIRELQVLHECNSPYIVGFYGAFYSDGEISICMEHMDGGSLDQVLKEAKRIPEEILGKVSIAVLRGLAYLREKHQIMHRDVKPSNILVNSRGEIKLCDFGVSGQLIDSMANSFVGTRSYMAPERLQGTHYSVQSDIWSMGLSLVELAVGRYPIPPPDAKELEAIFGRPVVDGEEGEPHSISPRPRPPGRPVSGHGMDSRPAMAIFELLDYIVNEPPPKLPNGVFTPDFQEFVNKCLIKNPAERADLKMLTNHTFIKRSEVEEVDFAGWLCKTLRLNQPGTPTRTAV

[26] = biological target: Serine/threonine-protein kinase Nek11 (Homo sapiens) (UniProt Q8NG66); conditions: Compound concentration 1000.0 nM
[27] = biological target: Serine/threonine-protein kinase Nek4 (Homo sapiens) (UniProt P51957); conditions: Compound concentration 1000.0 nM
[28] = biological target: Serine/threonine-protein kinase PAK 5 (Homo sapiens) (UniProt Q9P286); conditions: Compound concentration 1000.0 nM
[29] = biological target: Cyclin-dependent kinase 14 (Homo sapiens) (UniProt O94921); conditions: Compound concentration 1000.0 nM
[30] = biological target: Phosphorylase b kinase regulatory subunit alpha, liver isoform (Homo sapiens) (UniProt P46019); conditions: Compound concentration 1000.0 nM
[31] = system: Phosphatidylinositol 4,5-bisphosphate 3-kinase catalytic subunit alpha isoform (Homo sapiens), P42336 [I800L]; conditions: Compound concentration 1000.0 nM
Phosphatidylinositol 4,5-bisphosphate 3-kinase catalytic subunit alpha isoform (Homo sapiens), P42336 [I800L], sequence (P42336 whole entry I800L, canonical isoform): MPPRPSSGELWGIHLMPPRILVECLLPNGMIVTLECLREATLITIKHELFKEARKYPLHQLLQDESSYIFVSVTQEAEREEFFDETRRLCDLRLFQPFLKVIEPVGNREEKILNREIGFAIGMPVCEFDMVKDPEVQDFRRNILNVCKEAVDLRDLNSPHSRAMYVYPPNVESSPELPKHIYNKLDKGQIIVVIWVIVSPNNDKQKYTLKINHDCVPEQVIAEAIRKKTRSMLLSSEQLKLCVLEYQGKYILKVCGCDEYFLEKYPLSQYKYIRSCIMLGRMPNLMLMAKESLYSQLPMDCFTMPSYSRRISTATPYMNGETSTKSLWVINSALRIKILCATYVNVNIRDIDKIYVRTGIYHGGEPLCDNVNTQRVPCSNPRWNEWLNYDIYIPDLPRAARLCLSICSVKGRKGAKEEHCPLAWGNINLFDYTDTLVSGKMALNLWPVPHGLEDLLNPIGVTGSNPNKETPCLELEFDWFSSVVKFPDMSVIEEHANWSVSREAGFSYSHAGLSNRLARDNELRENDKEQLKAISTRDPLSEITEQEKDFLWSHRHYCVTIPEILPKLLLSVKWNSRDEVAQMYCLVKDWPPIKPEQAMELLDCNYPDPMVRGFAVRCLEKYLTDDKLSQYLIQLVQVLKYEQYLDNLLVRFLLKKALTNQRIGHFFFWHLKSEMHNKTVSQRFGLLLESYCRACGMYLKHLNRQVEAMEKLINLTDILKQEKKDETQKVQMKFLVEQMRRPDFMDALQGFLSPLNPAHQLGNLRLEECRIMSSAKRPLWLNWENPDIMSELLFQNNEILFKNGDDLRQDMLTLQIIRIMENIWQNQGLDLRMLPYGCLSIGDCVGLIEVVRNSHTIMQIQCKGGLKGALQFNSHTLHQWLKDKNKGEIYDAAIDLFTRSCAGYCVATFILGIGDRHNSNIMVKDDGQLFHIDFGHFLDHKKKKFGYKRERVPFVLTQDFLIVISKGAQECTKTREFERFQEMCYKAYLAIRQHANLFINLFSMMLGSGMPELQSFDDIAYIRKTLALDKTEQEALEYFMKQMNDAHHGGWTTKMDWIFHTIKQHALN

[32] = biological target: cAMP-dependent protein kinase catalytic subunit beta (Homo sapiens) (UniProt P22694); conditions: Compound concentration 1000.0 nM
[33] = biological target: Protein kinase C theta type (Homo sapiens) (UniProt Q04759); conditions: Compound concentration 1000.0 nM
[34] = biological target: Serine/threonine-protein kinase D3 (Homo sapiens) (UniProt O94806); conditions: Compound concentration 1000.0 nM
[35] = system: Proto-oncogene tyrosine-protein kinase receptor Ret (Homo sapiens), P07949 [V804L]; conditions: Compound concentration 1000.0 nM
[36] = biological target: Receptor-interacting serine/threonine-protein kinase 1 (Homo sapiens) (UniProt Q13546); conditions: Compound concentration 1000.0 nM
[37] = biological target: Serine/threonine-protein kinase Sgk1 (Homo sapiens) (UniProt O00141); conditions: Compound concentration 1000.0 nM
[38] = biological target: Serine/threonine-protein kinase TAO1 (Homo sapiens) (UniProt Q7L7X3); conditions: Compound concentration 1000.0 nM
[39] = biological target: Dual specificity testis-specific protein kinase 1 (Homo sapiens) (UniProt Q15569); conditions: Compound concentration 1000.0 nM
Dual specificity testis-specific protein kinase 1 (Homo sapiens), sequence (Q15569 whole entry, looked up): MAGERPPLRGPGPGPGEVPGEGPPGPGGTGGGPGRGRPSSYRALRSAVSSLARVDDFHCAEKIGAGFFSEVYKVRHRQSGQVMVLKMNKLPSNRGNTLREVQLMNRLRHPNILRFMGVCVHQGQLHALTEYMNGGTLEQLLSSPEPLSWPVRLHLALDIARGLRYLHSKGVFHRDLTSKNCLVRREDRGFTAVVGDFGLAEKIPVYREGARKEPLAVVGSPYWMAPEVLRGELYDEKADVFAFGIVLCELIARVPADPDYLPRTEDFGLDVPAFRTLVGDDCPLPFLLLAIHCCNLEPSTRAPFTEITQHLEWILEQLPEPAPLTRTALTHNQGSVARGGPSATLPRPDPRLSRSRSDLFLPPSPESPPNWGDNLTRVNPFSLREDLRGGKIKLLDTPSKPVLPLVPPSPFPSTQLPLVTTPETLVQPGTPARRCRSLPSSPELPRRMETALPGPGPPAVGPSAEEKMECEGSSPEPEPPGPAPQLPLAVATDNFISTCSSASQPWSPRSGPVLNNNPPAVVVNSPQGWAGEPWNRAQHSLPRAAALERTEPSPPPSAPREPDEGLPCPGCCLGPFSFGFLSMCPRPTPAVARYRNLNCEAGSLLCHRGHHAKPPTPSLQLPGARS

[40] = biological target: BDNF/NT-3 growth factors receptor (Homo sapiens) (UniProt Q16620); conditions: Compound concentration 1000.0 nM
BDNF/NT-3 growth factors receptor (Homo sapiens), sequence (Q16620 32-822 limits assumed): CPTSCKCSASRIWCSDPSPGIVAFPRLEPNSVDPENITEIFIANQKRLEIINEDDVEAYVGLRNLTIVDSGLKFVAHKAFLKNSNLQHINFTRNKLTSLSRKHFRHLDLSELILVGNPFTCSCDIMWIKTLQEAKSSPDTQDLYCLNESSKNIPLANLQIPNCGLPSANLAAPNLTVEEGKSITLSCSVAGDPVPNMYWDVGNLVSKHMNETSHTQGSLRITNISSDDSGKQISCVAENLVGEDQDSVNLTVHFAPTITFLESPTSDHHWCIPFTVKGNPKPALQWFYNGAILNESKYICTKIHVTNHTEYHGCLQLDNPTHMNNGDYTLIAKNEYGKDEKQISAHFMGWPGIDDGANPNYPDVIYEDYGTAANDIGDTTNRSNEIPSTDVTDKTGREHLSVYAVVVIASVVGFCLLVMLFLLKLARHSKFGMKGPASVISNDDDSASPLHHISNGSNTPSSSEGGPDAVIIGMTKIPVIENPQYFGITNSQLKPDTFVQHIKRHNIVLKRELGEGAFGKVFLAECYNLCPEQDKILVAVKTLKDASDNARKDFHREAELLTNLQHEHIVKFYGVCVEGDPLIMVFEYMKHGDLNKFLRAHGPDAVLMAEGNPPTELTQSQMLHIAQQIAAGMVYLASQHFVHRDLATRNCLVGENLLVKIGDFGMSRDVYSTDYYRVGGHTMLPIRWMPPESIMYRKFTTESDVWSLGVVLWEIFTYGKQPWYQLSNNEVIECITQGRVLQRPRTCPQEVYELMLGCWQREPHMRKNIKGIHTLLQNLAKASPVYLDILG

[41] = biological target: Wee1-like protein kinase 2 (Homo sapiens) (UniProt P0C1S8); conditions: Compound concentration 1000.0 nM
[42] = biological target: Serine/threonine-protein kinase 25 (Homo sapiens) (UniProt O00506); conditions: Compound concentration 1000.0 nM
[43] = biological target: Histamine H2 receptor (Homo sapiens) (UniProt P25021); conditions: Compound concentration 10.0 uM
[44] = biological target: Alpha-2B adrenergic receptor (Homo sapiens) (UniProt P18089); conditions: Compound concentration 10.0 uM
[45] = biological target: Alpha-1D adrenergic receptor (Homo sapiens) (UniProt P25100); conditions: Compound concentration 10.0 uM

CO[C@@H](C)c1c(Nc2ccc([C@H](N(C)C(=O)C3CCS(=O)(=O)CC3)C(F)(F)F)cc2)cnc2cc(Cl)nn12 [NVS-MALT1]
residual activity [1]: 100%
residual activity [2]: 100%
residual activity [3]: 59%
residual activity [4]: 94%
residual activity [5]: 77%
residual activity [6]: 100%
residual activity [7]: 76%
residual activity [8]: 71%
residual activity [9]: 91%
residual activity [10]: 100%
residual activity [11]: 83%
residual activity [12]: 100%
residual activity [13]: 88%
residual activity [14]: 100%
residual activity [15]: 57%
residual activity [16]: 93%
residual activity [17]: 99%
residual activity [18]: 90%
residual activity [19]: 87%
residual activity [20]: 100%
residual activity [21]: 82%
residual activity [22]: 100%
residual activity [23]: 73%
residual activity [24]: 100%
residual activity [25]: 96%
residual activity [26]: 100%
residual activity [27]: 90%
residual activity [28]: 100%
residual activity [29]: 100%
residual activity [30]: 96%
residual activity [31]: 55%
residual activity [32]: 81%
residual activity [33]: 93%
residual activity [34]: 85%
residual activity [35]: 86%
residual activity [36]: 91%
residual activity [37]: 94%
residual activity [38]: 100%
residual activity [39]: 85%
residual activity [40]: 100%
residual activity [41]: 88%
residual activity [42]: 87%
inhibition [43]: -9.88%
inhibition [44]: 0.32%
inhibition [45]: -6.69%

CO[C@@H](C)c1c(Nc2ccc([C@@H](N(C)C(=O)C3CCS(=O)(=O)CC3)C(F)(F)F)cc2)cnc2cc(Cl)nn12 [NVS-MALT1-C]
residual activity [1]: 100%
residual activity [2]: 100%
residual activity [3]: 59%
residual activity [4]: 85%
residual activity [5]: 96%
residual activity [6]: 100%
residual activity [7]: 77%
residual activity [8]: 100%
residual activity [9]: 84%
residual activity [10]: 100%
residual activity [11]: 83%
residual activity [12]: 100%
residual activity [13]: 100%
residual activity [14]: 100%
residual activity [15]: 74%
residual activity [16]: 95%
residual activity [17]: 87%
residual activity [18]: 100%
residual activity [19]: 81%
residual activity [20]: 100%
residual activity [21]: 86%
residual activity [22]: 91%
residual activity [23]: 100%
residual activity [24]: 100%
residual activity [25]: 97%
residual activity [26]: 100%
residual activity [27]: 90%
residual activity [28]: 100%
residual activity [29]: 99%
residual activity [30]: 44%
residual activity [31]: 71%
residual activity [32]: 89%
residual activity [33]: 98%
residual activity [34]: 93%
residual activity [35]: 78%
residual activity [36]: 84%
residual activity [37]: 89%
residual activity [38]: 100%
residual activity [39]: 83%
residual activity [40]: 100%
residual activity [41]: 100%
residual activity [42]: 84%
inhibition [43]: 5.46%
inhibition [44]: 1.55%
inhibition [45]: 3.2%
